Source: patent EP4755888A1 (ILAb Co., Ltd., priority 2023, dated 2025)

Biological target: PD-1/PD-L1 (Homo sapiens, UniProt Q9NZQ7)
Test: TR-FRET PD-1/PD-L1 binding inhibition at the molecular level (free proteins)
Details: Tag1-PD-L1 and Tag2-PD-1 proteins, twelve concentrations from 200 nM, 2 hours at room temperature, read-out: FRET assay (IC50)
How it was run: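 HTRF read-out at 665/620 nm after 2 h at room temperature. Detection used anti-Tag1 Eu cryptate plus anti-Tag2 XL665 antibodies. Tagged PD-L1 and PD-1 proteins were pre-mixed with compound across twelve […] 1:2 dilutions starting at 200 nM.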

Sequence of PD-1/PD-L1 (Q9NZQ7 19-238 limits assumed): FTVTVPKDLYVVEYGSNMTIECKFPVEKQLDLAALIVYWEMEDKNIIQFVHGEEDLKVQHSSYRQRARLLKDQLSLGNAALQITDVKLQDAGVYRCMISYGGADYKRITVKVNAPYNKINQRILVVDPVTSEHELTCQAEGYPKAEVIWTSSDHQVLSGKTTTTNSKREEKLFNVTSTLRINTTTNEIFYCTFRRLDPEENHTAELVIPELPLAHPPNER

Row | IC50 [nM] | Structure (SMILES)
1 | < 10 | COc1cc(-c2cccc(-c3cccc(NC(=O)c4cc5n(n4)CCCC5N4CC[C@@H](O)C4)c3Cl)c2Cl)cc(F)c1CNCCNC(C)=O (stereo partly drawn) [Compound 121, N-(4"-(((2-acetamidoethyl)amino)methyl)-2,2'-dichloro-3"-fluoro-5"-methoxy-[1,1':3',1"-terphenyl]-3-yl)-4-((R)-3-hydroxypyrrolidin-1-yl)-4,5,6,7-tetrahydropyrazolo[1,5-a]pyridine-2-carboxamide]
2 | < 10 | COc1cc(-c2cccc(-c3cccc(NC(=O)c4cc5n(n4)CCCC5NCCO)c3Cl)c2Cl)cc(F)c1CN1CC[C@@H](O)C1 (stereo partly drawn) [Compound 122, N-(2,2'-dichloro-3"-fluoro-4"-(((R)-3-hydroxypyrrolidin-1-yl)methyl)-5"-methoxy-[1,1':3',1"-terphenyl]-3-yl)-4-((2-hydroxyethyl)amino)-4,5,6,7-tetrahydropyrazolo[1,5-a]pyridine-2-carboxamide]
3 | < 10 | COc1cc(-c2cccc(-c3cccc(NC(=O)c4cc5n(n4)CCCC5N4CC[C@@H](O)C4)c3Cl)c2Cl)cc(F)c1CN1CC[C@@H](O)C1 (stereo partly drawn) [Compound 123, N-(2,2'-dichloro-3"-fluoro-4"-(((R)-3-hydroxypyrrolidin-1-yl)methyl)-5"-methoxy-[1,1':3',1 "-terphenyl]-3-yl)-4-((R)-3-hydroxypyrrolidin-1-yl)-4,5,6,7-tetrahydropyrazolo[1,5-a]pyridine-2-carboxamide]
4 | < 10 | COc1cc(-c2cccc(-c3cccc(NC(=O)c4cc5n(n4)CCCC5NCCO)c3Cl)c2Cl)cc(F)c1CNCCO (stereo not shown) [Compound 124, N-(2,2'-dichloro-3"-fluoro-4"-(((2-hydroxyethyl)amino)methyl)-5"-methoxy-[1,1':3',1"-terphenyl]-3-yl)-4-((2-hydroxyethyl)amino)-4,5,6,7-tetrahydropyrazolo[1,5-a]pyridine-2-carboxamide]
5 | < 10 | COc1cc(-c2cccc(-c3cccc(NC(=O)c4cc5n(n4)CCCC5N4CC[C@@H](O)C4)c3Cl)c2Cl)cc(F)c1CNCCO (stereo partly drawn) [Compound 125, N-(2,2'-dichloro-3"-fluoro-4"-(((2-hydroxyethyl)amino)methyl)-5"-methoxy-[1,1':3',1"-terphenyl]-3-yl)-4-((R)-3-hydroxypyrrolidin-1-yl)-4,5,6,7-tetrahydropyrazolo[1,5-a]pyridine-2-carboxamide]
6 | 10 to 100 | COc1cc(-c2cccc(-c3cccc(NC(=O)c4cc5n(n4)CCCC5NCCO)c3Cl)c2Cl)cc(F)c1CNC[C@@H]1CCC(=O)N1 (stereo partly drawn) [Compound 126, N-(2,2'-dichloro-3"-fluoro-5"-methoxy-4"-(((((S)-5-oxopyrrolidin-2-yl)methyl)amino)methyl)-[1,1':3',1"-terphenyl]-3-yl)-4-((2-hydroxyethyl)amino)-4,5,6,7-tetrahydropyrazolo[1,5-a]pyridine-2-carboxamide]
7 | 10 to 100 | COc1cc(-c2cccc(-c3cccc(NC(=O)c4cc5n(n4)CCCC5N4CC[C@@H](O)C4)c3Cl)c2Cl)cc(F)c1CNC[C@@H]1CCC(=O)N1 (stereo partly drawn) [Compound 127, N-(2,2'-dichloro-3"-fluoro-5"-methoxy-4"-(((((S)-5-oxopyrrolidin-2-yl)methyl)amino)methyl)-[1,1':3',1"-terphenyl]-3-yl)-4-((R)-3-hydroxypyrrolidin-1-yl)-4,5,6,7-tetrahydropyrazolo[1,5-a]pyridine-2-carboxamide]
8 | < 10 | COc1cc(-c2cccc(-c3cccc(NC(=O)c4cc5n(n4)CCCC5N4CC[C@@H](O)C4)c3Cl)c2Cl)cc(F)c1CNC(C)(C)C(=O)O (stereo partly drawn) [Compound 128, 2-(((2',2"-dichloro-3-fluoro-3"-(4-((R)-3-hydroxypyrrolidin-1-yl)-4,5,6,7-tetrahydropyrazolo[1,5-a]pyridine-2-carboxamido)-5-methoxy-[1,1':3',1"-terphenyl]-4-yl)methyl)amino)-2-methylpropanoic acid]

The remaining lines, values behind:

Row | Structure (SMILES) | IC50 [nM]
9 | CC(C)(NC1CCCn2nc(C(=O)Nc3cccc(-c4cccc(NC(=O)c5ccc(CN6CC[C@@H](O)C6)cn5)c4Cl)c3Cl)cc21)C(=O)O (stereo partly drawn) [Compound 108, 2-((2-((2,2'-dichloro-3'-(5-(((R)-3-hydroxypyrrolidin-1-yl)methyl)picolinamido)-[1,1'-biphenyl]-3-yl)carbamoyl)-4,5,6,7-tetrahydropyrazolo[1,5-a]pyridin-4-yl)amino)-2-methylpropanoic acid] | < 10
10 | Cc1c(NC(=O)c2cc3n(n2)CCCC3O)cccc1-c1cccc(-c2ccc(CNC[C@@H]3CCC(=O)N3)cc2)c1C (stereo partly drawn) [Compound 109, N-(2,2'-dimethyl-4"-(((((S)-5-oxopyrrolidin-2-yl)methyl)amino)methyl)-[1,1':3',1"-terphenyl]-3-yl)-4-hydroxy-4,5,6,7-tetrahydropyrazolo[1,5-a]pyridine-2-carboxamide] | < 10
11 | COc1nc(-c2cccc(-c3cccc(NC(=O)c4cc5n(n4)CCCC5O)c3C)c2C)cnc1CNC[C@@H]1CCC(=O)N1 (stereo partly drawn) [Compound 110, 4-hydroxy-N-(3'-(6-methoxy-5-(((((S)-5-oxopyrrolidin-2-yl)methyl)amino)methyl)pyrazin-2-yl)-2,2'-dimethyl-[1,1'-biphenyl]-3-yl)-4,5,6,7-tetrahydropyrazolo[1,5-a]pyridine-2-carboxamide] | < 10
12 | O=C1CC[C@@H](CNCc2ccc(-c3cccc(-c4cccc(NC(=O)c5cc6n(n5)CCCC6O)c4Cl)c3Cl)cc2)N1 (stereo partly drawn) [Compound 111, N-(2,2'-dichloro-4"-(((((S)-5-oxopyrrolidin-2-yl)methyl)amino)methyl)-[1,1':3',1"-terphenyl]-3-yl)-4-hydroxy-4,5,6,7-tetrahydropyrazolo[1,5-a]pyridine-2-carboxamide] | < 10
13 | COc1cc(-c2cccc(-c3cccc(NC(=O)c4cc5n(n4)CCCC5O)c3C)c2C)cc(F)c1CNC[C@@H]1CCC(=O)N1 (stereo partly drawn) [Compound 112, N-(3"-fluoro-5"-methoxy-2,2'-dimethyl-4"-(((((S)-5-oxopyrrolidin-2-yl)methyl)amino)methyl)-[1,1':3',1"-terphenyl]-3-yl)-4-hydroxy-4,5,6,7-tetrahydropyrazolo[1,5-a]pyridine-2-carboxamide] | < 10
14 | COc1cc(-c2cccc(-c3cccc(NC(=O)c4cc5n(n4)CCCC5O)c3C)c2C)cc(F)c1CNCCNC(C)=O (stereo not shown) [Compound 112-1, N-(4"-(((2-acetamidoethyl)amino)methyl)-3"-fluoro-5"-methoxy-2,2'-dimethyl-[1,1':3',1"-terphenyl]-3-yl)-4-hydroxy-4,5,6,7-tetrahydropyrazolo[1,5-a]pyridine-2-carboxamide] | < 10
15 | COc1cc(-c2cccc(-c3cccc(NC(=O)c4cc5n(n4)CCCC5O)c3C)c2C)cc(F)c1CN1CC[C@@H](O)C1 (stereo partly drawn) [Compound 113, N-(3"-fluoro-4"-(((R)-3-hydroxypyrrolidin-1-yl)methyl)-5"-methoxy-2,2'-dimethyl-[1,1':3',1"-terphenyl]-3-yl)-4-hydroxy-4,5,6,7-tetrahydropyrazolo[1,5-a]pyridine-2-carboxamide] | < 10
16 | COc1cc(-c2cccc(-c3cccc(NC(=O)c4cc5n(n4)CCCC5O)c3C)c2C)cc(F)c1CNCCO (stereo not shown) [Compound 114, N-(3"-fluoro-4"-(((2-hydroxyethyl)amino)methyl)-5"-methoxy-2,2'-dimethyl-[1,1':3',1 "-terphenyl]-3-yl)-4-hydroxy-4,5,6,7-tetrahydropyrazolo[1,5-a]pyridine-2-carboxamide] | < 10
17 | COc1cc(-c2cccc(-c3cccc(NC(=O)c4cc5n(n4)CCCC5N4CC[C@@H](O)C4)c3C)c2C)cc(F)c1CNC(C)(C)C(=O)O (stereo partly drawn) [Compound 115, 2-(((3-fluoro-3"-(4-((R)-3-hydroxypyrrolidin-1-yl)-4,5,6,7-tetrahydropyrazolo[1,5-a]pyridine-2-carboxamido)-5-methoxy-2',2"-dimethyl-[1,1':3',1"-terphenyl]-4-yl)methyl)amino)-2-methylpropanoic acid] | < 10
18 | COc1cc(-c2cccc(-c3cccc(NC(=O)c4cc5n(n4)CCCC5O)c3Cl)c2Cl)cc(F)c1CNCCNC(C)=O (stereo not shown) [Compound 116, N-(4"-(((2-acetamidoethyl)amino)methyl)-2,2'-dichloro-3"-fluoro-5"-methoxy-[1,1':3',1"-terphenyl]-3-yl)-4-hydroxy-4,5,6,7-tetrahydropyrazolo[1,5-a]pyridine-2-carboxamide] | 10 to 100
19 | COc1cc(-c2cccc(-c3cccc(NC(=O)c4cc5n(n4)CCCC5O)c3Cl)c2Cl)cc(F)c1CN1CC[C@@H](O)C1 (stereo partly drawn) [Compound 117, N-(2,2'-dichloro-3"-fluoro-4"-(((R)-3-hydroxypyrrolidin-1-yl)methyl)-5"-methoxy-[1,1':3',1"-terphenyl]-3-yl)-4-hydroxy-4,5,6,7-tetrahydropyrazolo[1,5-a]pyridine-2-carboxamide] | 10 to 100
20 | COc1cc(-c2cccc(-c3cccc(NC(=O)c4cc5n(n4)CCCC5O)c3Cl)c2Cl)cc(F)c1CNCCO (stereo not shown) [Compound 118, N-(2,2'-dichloro-3"-fluoro-4"-(((2-hydroxyethyl)amino)methyl)-5"-methoxy-[1,1':3',1"-terphenyl]-3-yl)-4-hydroxy-4,5,6,7-tetrahydropyrazolo[1,5-a]pyridine-2-carboxamide] | 10 to 100
21 | COc1cc(-c2cccc(-c3cccc(NC(=O)c4cc5n(n4)CCCC5O)c3Cl)c2Cl)cc(F)c1CNC[C@@H]1CCC(=O)N1 (stereo partly drawn) [Compound 119, N-(2,2'-dichloro-3"-fluoro-5"-methoxy-4"-(((((S)-5-oxopyrrolidin-2-yl)methyl)amino)methyl)-[1,1':3',1"-terphenyl]-3-yl)-4-hydroxy-4,5,6,7-tetrahydropyrazolo[1,5-a]pyridine-2-carboxamide] | 10 to 100
22 | COc1cc(-c2cccc(-c3cccc(NC(=O)c4cc5n(n4)CCCC5NCCO)c3Cl)c2Cl)cc(F)c1CNCCNC(C)=O (stereo not shown) [Compound 120, N-(4"-(((2-acetamidoethyl)amino)methyl)-2,2'-dichloro-3"-fluoro-5"-methoxy-[1,1':3',1"-terphenyl]-3-yl)-4-((2-hydroxyethyl)amino)-4,5,6,7-tetrahydropyrazolo[1,5-a]pyridine-2-carboxamide] | < 10
